Assay results from PubChem BioAssay AID2060513 (Molecular Pharmacology Branch, DTP, NCI, 2025).
pIC50: −log10 of the molar value.

Tested on: 299254-011-R-J1-PDC complex spheroids viability
Assay: Anticancer human tumor 299254-011-R-J1-PDC patient-derived melanoma cell line growth inhibition [GQUAD]
Conditions: for pIC50: curve of first compound; for viability, T/C: stronger effect = lower value
Outline: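 Viability of tumor cells grown as complex spheroids with endothelial and stromal cells, exposed to drug combinations. Top concentration at or near clinical Cmax (else 10 microM), diluted in half-log increments.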

[1] = second compound 0.0316 µM, first compound 0.0316 µM
[2] = second compound 0.0316 µM, first compound 0.1 µM
[3] = second compound 0.0316 µM, first compound 0.316 µM
[4] = second compound 0.0316 µM, first compound 1 µM
[5] = second compound 0.0316 µM, first compound 3.16 µM
[6] = second compound 0.0316 µM, first compound 10 µM
[7] = second compound 0.1 µM, first compound 0.0316 µM
[8] = second compound 0.1 µM, first compound 0.1 µM
[9] = second compound 0.1 µM, first compound 0.316 µM
[10] = second compound 0.1 µM, first compound 1 µM
[11] = second compound 0.1 µM, first compound 3.16 µM
[12] = second compound 0.1 µM, first compound 10 µM
[13] = second compound 0.316 µM, first compound 0.0316 µM
[14] = second compound 0.316 µM, first compound 0.1 µM
[15] = second compound 0.316 µM, first compound 0.316 µM
[16] = second compound 0.316 µM, first compound 1 µM
[17] = second compound 0.316 µM, first compound 3.16 µM
[18] = second compound 0.316 µM, first compound 10 µM
[19] = second compound 1 µM, first compound 0.0316 µM
[20] = second compound 1 µM, first compound 0.1 µM
[21] = second compound 1 µM, first compound 0.316 µM
[22] = second compound 1 µM, first compound 1 µM
[23] = second compound 1 µM, first compound 3.16 µM
[24] = second compound 1 µM, first compound 10 µM
[25] = second compound 3.16 µM, first compound 0.0316 µM
[26] = second compound 3.16 µM, first compound 0.1 µM
[27] = second compound 3.16 µM, first compound 0.316 µM
[28] = second compound 3.16 µM, first compound 1 µM
[29] = second compound 3.16 µM, first compound 3.16 µM
[30] = second compound 3.16 µM, first compound 10 µM
[31] = second compound 10 µM, first compound 0.0316 µM
[32] = second compound 10 µM, first compound 0.1 µM
[33] = second compound 10 µM, first compound 0.316 µM
[34] = second compound 10 µM, first compound 1 µM
[35] = second compound 10 µM, first compound 3.16 µM
[36] = second compound 10 µM, first compound 10 µM
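Note: spheroids exposed to the agents for seven days before readout.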
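Throughout, for viability, T/C: percent viability relative to DMSO vehicle control wells = 100%.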

Compound COc1cccc2c1C(=O)c1c(O)c3c(c(O)c1C2=O)CC(O)(C(=O)CO)CC3OC1CC(N)C(O)C(C)O1 (stereo unspecified) + Cc1[nH]c2ccc(F)cc2c1-c1nc2c3cccnc3c3ncccc3c2[nH]1 has a pIC50 (second compound 0.0316 µM) of 5.33, a pIC50 (second compound 0.1 µM) of 5.38 and a pIC50 (second compound 0.316 µM) of 5.27. For the same compound, the pIC50 (second compound 1 µM) was 5.31, the pIC50 (second compound 3.16 µM) was 5.52 and the pIC50 (second compound 10 µM) was 5.59. It also gave a viability, T/C [1] of 100%, a viability, T/C [2] of 91.5% and a viability, T/C [3] of 82.2%. The viability, T/C [4] was 90.5%, the viability, T/C [5] was 62.4% and the viability, T/C [6] was 25.7%. The viability, T/C [7] was 91.4%, the viability, T/C [8] was 91.7% and the viability, T/C [9] was 88%. It also gave a viability, T/C [10] of 66.4%, a viability, T/C [11] of 64.7% and a viability, T/C [12] of 23.8%. The viability, T/C [13] was 94.2%, the viability, T/C [14] was 92.1% and the viability, T/C [15] was 93.3%. For the same compound, the viability, T/C [16] was 94.7%, the viability, T/C [17] was 74.4% and the viability, T/C [18] was 20.4%. For the same compound, the viability, T/C [19] was 88.9%, the viability, T/C [20] was 86.9% and the viability, T/C [21] was 94.2%. The viability, T/C [22] was 95.3%, the viability, T/C [23] was 69.1% and the viability, T/C [24] was 19.3%. The viability, T/C [25] was 89.9%, the viability, T/C [26] was 91.7% and the viability, T/C [27] was 90.1%. For the same compound, the viability, T/C [28] was 70.3%, the viability, T/C [29] was 50.2% and the viability, T/C [30] was 13.4%. For the same compound, the viability, T/C [31] was 90.2%, the viability, T/C [32] was 91.3% and the viability, T/C [33] was 82.6%. For the same compound, the viability, T/C [34] was 83.3%, the viability, T/C [35] was 42.6% and the viability, T/C [36] was 11.9%.
For Cn1ncnc1[C@H]1c2n[nH]c(=O)c3cc(F)cc(c23)N[C@@H]1c1ccc(F)cc1 + Cc1cnc(CNC(=O)c2c(=O)c3ccc(N4CCCN(C)CC4)nc3n3c2sc2ccccc23)cn1, the pIC50 (second compound 0.0316 µM) was less than 6.50, the pIC50 (second compound 0.1 µM) was less than 6.50 and the pIC50 (second compound 0.316 µM) was less than 6.50. For the same compound, the pIC50 (second compound 1 µM) was less than 6.50, the pIC50 (second compound 3.16 µM) was less than 6.50 and the pIC50 (second compound 10 µM) was less than 6.50. It also gave a viability, T/C (second compound 0.0316 µM, first compound 0.000999 µM) of 94.1%, a viability, T/C (second compound 0.0316 µM, first compound 0.00316 µM) of 116% and a viability, T/C (second compound 0.0316 µM, first compound 0.00999 µM) of 125%. For the same compound, the viability, T/C [1] was 87.5%, the viability, T/C (second compound 0.0316 µM, first compound 0.0999 µM) was 108% and the viability, T/C [3] was 105%. It also gave a viability, T/C (second compound 0.1 µM, first compound 0.000999 µM) of 97.2%, a viability, T/C (second compound 0.1 µM, first compound 0.00316 µM) of 96.2% and a viability, T/C (second compound 0.1 µM, first compound 0.00999 µM) of 91.4%. For the same compound, the viability, T/C [7] was 122%, the viability, T/C (second compound 0.1 µM, first compound 0.0999 µM) was 121% and the viability, T/C [9] was 90.3%. The viability, T/C (second compound 0.316 µM, first compound 0.000999 µM) was 93.4%, the viability, T/C (second compound 0.316 µM, first compound 0.00316 µM) was 91.2% and the viability, T/C (second compound 0.316 µM, first compound 0.00999 µM) was 88.3%. The viability, T/C [13] was 99.1%, the viability, T/C (second compound 0.316 µM, first compound 0.0999 µM) was 111% and the viability, T/C [15] was 105%. It also gave a viability, T/C (second compound 1 µM, first compound 0.000999 µM) of 90.9%, a viability, T/C (second compound 1 µM, first compound 0.00316 µM) of 96.9% and a viability, T/C (second compound 1 µM, first compound 0.00999 µM) of 84.2%. For the same compound, the viability, T/C [19] was 104%, the viability, T/C (second compound 1 µM, first compound 0.0999 µM) was 83.2% and the viability, T/C [21] was 94.1%. It also gave a viability, T/C (second compound 3.16 µM, first compound 0.000999 µM) of 85.3%, a viability, T/C (second compound 3.16 µM, first compound 0.00316 µM) of 82.3% and a viability, T/C (second compound 3.16 µM, first compound 0.00999 µM) of 68.8%. For the same compound, the viability, T/C [25] was 91.2%, the viability, T/C (second compound 3.16 µM, first compound 0.0999 µM) was 74.2% and the viability, T/C [27] was 92.1%. The viability, T/C (second compound 10 µM, first compound 0.000999 µM) was 71.7%, the viability, T/C (second compound 10 µM, first compound 0.00316 µM) was 60.6% and the viability, T/C (second compound 10 µM, first compound 0.00999 µM) was 105%. It also gave a viability, T/C [31] of 61.1%, a viability, T/C (second compound 10 µM, first compound 0.0999 µM) of 87.4% and a viability, T/C [33] of 61.8%.
For COc1cc(C2c3cc4c(cc3C(OC3OC5COC(C)OC5C(O)C3O)C3COC(=O)C23)OCO4)cc(OC)c1O (stereo unspecified) + Cc1cnc(CNC(=O)c2c(=O)c3ccc(N4CCCN(C)CC4)nc3n3c2sc2ccccc23)cn1, the pIC50 (second compound 0.0316 µM) was less than 5.00, the pIC50 (second compound 0.1 µM) was less than 5.00 and the pIC50 (second compound 0.316 µM) was less than 5.00. It also gave a pIC50 (second compound 1 µM) of less than 5.00, a pIC50 (second compound 3.16 µM) of less than 5.00 and a pIC50 (second compound 10 µM) of 7.50. It also gave a viability, T/C [1] of 105%, a viability, T/C [2] of 121% and a viability, T/C [3] of 84.4%. It also gave a viability, T/C [4] of 90.1%, a viability, T/C [5] of 76.7% and a viability, T/C [6] of 86.6%. The viability, T/C [7] was 112%, the viability, T/C [8] was 95.8% and the viability, T/C [9] was 89%. The viability, T/C [10] was 87.9%, the viability, T/C [11] was 95.1% and the viability, T/C [12] was 77.7%. The viability, T/C [13] was 90%, the viability, T/C [14] was 110% and the viability, T/C [15] was 130%. The viability, T/C [16] was 105%, the viability, T/C [17] was 82.4% and the viability, T/C [18] was 63.5%. For the same compound, the viability, T/C [19] was 90.4%, the viability, T/C [20] was 84.8% and the viability, T/C [21] was 103%. The viability, T/C [22] was 75.9%, the viability, T/C [23] was 84.9% and the viability, T/C [24] was 61.9%. The viability, T/C [25] was 78.5%, the viability, T/C [26] was 79.5% and the viability, T/C [27] was 69.1%. The viability, T/C [28] was 73%, the viability, T/C [29] was 82.4% and the viability, T/C [30] was 59.2%. For the same compound, the viability, T/C [31] was 31%, the viability, T/C [32] was 16.7% and the viability, T/C [33] was 67.1%. For the same compound, the viability, T/C [34] was 69.8%, the viability, T/C [35] was 33.5% and the viability, T/C [36] was 0.3%.
